Measurements from patent US9617517B2, “Small chemical compound which promotes induction of differentiation of stem cells into insulin-producing cells and method for inducing differentiation of stem cells into insulin-producing cells using said small chemical compound” (NATIONAL UNIVERSITY CORPORATION KUMAMOTO UNIVERSITY, priority 2011, dated 2017).

Columns and labels:
[1] = system: VMAT2KD ES cells; test: c-peptide amount of differentiated VMAT2KD ES cells (ELISA); type: cell-based, mouse; conditions: dBu-cAMP 0.6 μM (FIG. 12A)
Protocol: In the Vmat2-knockdown and Drd2-knockdown assays, Expression Arrest non-silencing control shRNA (Open Biosystems, #RHS4080), Vmat2 hRNA (Open Biosystems, #RMM3981-97058457 and #RMM3981-97058458) or Drd2 hRNA (Open Biosystems, #RMM3981-9594258) lentiviral vectors were used. For virus preparation, HEK293-FT cells (Invitrogen) were seeded on a plate medium the day before transfection. After overnight culture, the cells were transfected with lentiviral vectors and ViraPower™ Lentiviral Packaging Mix (Invitrogen) using FuGENE6 Transfection Reagent (Roche) according to the manufacturer's protocol. Cells were incubated in the ES maintenance medium for 24 hours, and viral supernatants were collected. Then, SK7 cells were infected with the viral supernatants. After incubation for 24 hours, the virus-containing medium was replaced with fresh ES maintenance medium. Further 24 hours later, the infected cells were selected using […] puromycin. The surviving cells were cloned as a knockdown-cell lines.
Differentiated ES cells were pre-incubated for 4 hours in low glucose (5.5 mM) Dulbecco's modified minimal essential medium with 1% fetal bovine serum. […] Insulin secretion into the culture medium and insulin content of the cell lysate were measured using the mouse c-peptide ELISA kit (Shibayagi. Co. Ltd., Japan). […]

[2] = system: mouse ES cells (Pdx1/GFP); test: Differentiation of mouse ES cells into insulin positive cells on nano fiber plate, immunostaining and quantitative image analysis; type: cell-based
From the text: Two ES cell lines, one expressing green fluorescent protein (GFP) under the control of insulin 1 promoter, designed ING (Higuchi Y., Shiraki N., Yamane K, Qin Z., Mochitate K., Araki K., Senokuchi K., Yamagata K., Hara M., Kume K., and Kume S., Synthesized basement membranes direct the differentiation of mouse embryonic stem cells into pancreatic lineages. J. Cell Science, 123, 2733-2742, 2010), and the other one expressing GFP under the control of Pdx1 promoter, designated SK7 (Shiraki N, Yoshida T, Araki K, et al. Guided differentiation of embryonic stem cells into Pdx1-expressing regional-specific definitive endoderm. Stem Cells. 2008; 26:874-885), were used. Both cell lines were maintained on mouse embryonic fibroblast (MEF) feeders in Glasgow minimum essential medium (Invitrogen) containing 1000 units/ml leukemia inhibitory factor (LIF; Chemicon), 15% Knocked-out Serum Replacement (KSR; Gibco), 1% fetal bovine serum (FBS; Hyclone), 100 μM nonessential amino acids (NEAA; Invitrogen), 2 mM L-glutamine (L-Gln; Invitrogen), 1 mM sodium pyruvate (Invitrogen), 50 units/ml penicillin and 50 μg/ml streptomycin (PS; Invitrogen) and 100 μM β-mercaptoethanol (β-ME; Sigma), as ES maintenance medium.
For the differentiation studies, ES cells were plated at 5,000 cells per well in Corning 96 well plate with Ultra-Web Synthetic Polyamine Surface (#3873XX1, Corning Coster, Cambridge, Miss.), and cultured. The cells were cultured in Dulbecco's Modified Eagle Medium (DMEM: Invitrogen, Glasgow, UK) containing 4500 mg/L glucose, supplemented with NEAA, L-Gln, PS, β-ME, 10 μg/ml insulin (Sigma-Aldrich), 5.5 μg/ml transferrin (Sigma-Aldrich), 6.7 pg/ml selenium (Sigma-Aldrich), and 0.25% Albmax (Invitrogen), 10 ng/mL recombinant human activin-A (R&D Systems, Minneapolis, Minn.), 5 ng/mL; recombinant human bFGF for 7 days (d1-d7) (I of FIG. 1). And then, the medium was changed to RPMI 1640 medium (Invitrogen) containing 2000 mg/L glucose (Sigma, St Louis, Mo.), 1 μM Retinoic acid (Sigma-Aldrich), 50 ng/ml Human Recombinant Fibroblast Growth Factor-10 (Peprotech, Rocky Hill, N.J.), B27 SUPPLEMENT (Invitrogen) and 0.25 μM 3-Keto-N-(aminoethyl-aminocaproyl-dihydrocinnamoyl) cyclopamine Shh Signaling Antagonist II (Calbiochem, San Diego, Calif.) on d7 to d11 (II of FIG. 1). Finally, the medium was switched to DMEM containing 1000 mg/L glucose supplemented with NEAA, L-Gln, PS, β-ME, 10 μg/ml insulin (Sigma-Aldrich), 5.5 μg/ml transferrin (Sigma-Aldrich), 6.7 pg/ml selenium (Sigma-Aldrich), 0.25% Albmax (Invitrogen) and 10 mM nicotinamide (Sigma-Aldrich) on d11 to d17 (III of FIG. 1). Media were replaced every 2 days with fresh medium and growth factors until d17.
All tested small chemical compounds were solved in dimethyl sulfoxide (DMSO) at given concentration. Compounds were added on d11, d13 and d15 in a medium. Final concentration of DMSO was adjusted at 1.0% in all experiments for compounds.
After 17 days cell culture, cultured ES cells were fixed in 4% paraformaldehyde in PBS for 30 min at room temperature, and rinsed several times with PBS. Then, cells were incubated in the added diluted primary antibody in 20% Blocking One (Nacalai tesque, Tokyo, Japan) in PEST (0.1% Tween-20 in PBS) in a humidified chamber for overnight at 4° C. After washing the cells in PBST, cells were incubated with the secondary antibody in 20% Blocking One for 2 hr at room temperature in dark. After washing off the secondary antibody in PBST, cells were counterstained with […] (DAPI) (Roche Diagnostics). The following antibodies were used as First antibodies: Rabbit anti-GFP (MBL International Corp., Woburn, Mass.), Mouse anti-Insulin (Sigma). The following antibodies were used as Secondary antibodies: Alexa 568-conjugated, Alexa 488-conjugated antibodies (Invitrogen) Cells were counterstained with DAPI (Roche Diagnotics, Basel, Switzerland).

[3] = system: differentiated ES cells; test: Secreted insulin and cellular insulin content by mouse c-peptide ELISA; type: cell-based

`CCCC(=O)Nc1ncnc2c1ncn2[C@@H]1O[C@@H]2COP(=O)(O)O[C@H]2[C@H]1OC(=O)CCC` [Dibutyryl- cAMP, dibutyrate-cAMP] was tested, and the “c-peptide amount of differentiated cells” value [1] was “large increase in the c-peptide amount”, the “increase of number of insulin positive cells” value ([2]; 0.6 μM dBu-cAMP (FIG. 11B)) was “about 7 fold” and the “increase of number of insulin-expressing cells” value ([2]; NS cells, 0.63 μM dBu-cAMP d11-d17 (FIG. 11A)) was 2.9 fold. The “effect on differentiation into insulin-expressing cells” value ([2]; compound added d11-d17, insulin staining d17 (FIG. 4, 5, 7, 8, 10)) was “enhanced the differentiation into insulin-expressing cells”, the “Relative value of Ins positive cells” value ([2]; number of cells with no compound = 1, concentration of each compound (μM), added d11, d13, d15, analysed d17) was 4.9 and the “sugar-responsive C-peptide secretion” value ([3]; dBu-cAMP 0.6 μM, no TBZ, addition days 11-17, 11-15 or 13-17, day 17 (FIG. 17)) was “increased in all conditions”. For the same compound, the C-peptide secretion ([3]; glucose concentration 27.5 mM, dBu-cAMP 0.6 μM day 11 to 17 (FIG. 18E)) was “C-peptide secretion was observed”.
